Laboratory results from US9944660B2, “Tricyclic benzoxaboroles as antibacterial agents” (Daiichi Sankyo Company, Limited, priority 2014, dated 2018).

Tests used:
[1] = tested on: E. coli ATCC 25922; test: Bacterial susceptibility testing (MIC, CLSI microdilution); type: cell-based; conditions: Escherichia coli, ATCC25922
Procedure: (§1) (Test Example 2) Method of Testing Susceptibility of Bacterial [MICs]
(§2) Minimum inhibitory concentration (MIC) were determined as recommended by the Clinical and Laboratory Standards Institute (CLSI) in 2010 (M100-520), in 2011 (M100-521), 2012 (M100-522) and in 2013 (M100-523) with minor modifications.
(§3) In short, bacterial cultures were streaked on Muller Hinton Agar plates and incubated at 35±2° C. for about 18 to 20 hours. Following day colony suspension was prepared in saline and adjusted to 0.5 McFarland using Densitometer. This culture was further diluted 100 fold in Muller Hinton Broth or M9 minimal media or pooled human urine and used for MIC determination. The test compounds were prepared in dimthylesulfoxide (DMSO) at concentration of 1 mg/mL, and diluted to 32 μg/mL in respective media. Further two fold serial dilution were prepared in 96 well microtiter plates. 50 μL of diluted cultures were added to all wells and incubated at 35±2° C. for about 16 to 20 hours.

[2] = tested on: K. pneumoniae ATCC 13883; test: as above; type: cell-based; conditions: Klebsiella pneumoniae, ATCC13883
Procedure: as §1, §2, §3

[3] = tested on: P. aeruginosa; test: as above; type: cell-based; conditions: Pseudomonas aeruginosa, strain not stated, read-out: MIC against P. aeruginosa
Procedure: as §1, §2, §3

[4] = tested on: P. aeruginosa PAO-1; test: In vivo efficacy in P. aeruginosa PAO1 murine lung infection model; conditions: subcutaneous 75 mg/kg twice daily
Procedure: (Test Example 3c) In Vivo Efficacy in P. aeruginosa PAO1 Murine Lung Infection Model Overnight grown culture of P. aeruginosa PAO-1 on TSA agar was inoculated in Brain heart infusion broth (BHI, DIFCO) and grown in a shaker incubator with shaking at 110 rpm at 35±2° C. overnight. The culture was subcultured in 50 mL of BHI and incubated again at 110 rpm at 35±2° C. on a shaker incubator till the optical density of the culture reaches 0.5-0.7 units. For infection, animals were weighed, randomized and anesthetized by giving isofluorane. Under anesthesia the animals were infected with 50 μL of the inoculum prepared as above by intranasal route. The test compounds were administered at 75 mg/kg body weight by subcutaneous route after 1 hour and 6 hours post infection. Animals were euthanized, lungs were removed aseptically and homogenized in PBS (3 mL) and serial dilutions plated on TSA plates 24 hours post infection.

[5] = Oral bioavailability (BA) in rats; type: in vivo; conditions: male, rat, plasma, 8.5 mg/kg body weight; Sprague Dawley Rats, 8.5 mg/kg oral, 4.25 mg/kg intravenous; read-out: oral absolute bioavailability
Procedure: (Test Example 8a) Oral Bioavailability (BA) in Rats
To Male Sprague Dawley Rats (215±10 g) test compound was administered as 2.0 mg/mL solution in milli-Q water (pH 5.0) by intravenous and oral route. The final dose was 4.25 mg/kg body weight (intravenous) or 8.5 mg/kg body weight (oral). Plasma samples analyzed for test compound using LC-MS/MS method. Estimation of pharmacokinetic parameters was done by using moment analysis. WinNonlin software 6.1 (Pharsight) was utilized for the estimation of PK parameters and oral bioavailability.

[6] = Oral bioavailability (BA) in mouse; type: in vivo; conditions: female, plasma, 8.5 mg/kg body weight, Swiss mice, 8.5 mg/kg oral, 4.25 mg/kg intravenous, read-out: oral absolute bioavailability
Procedure: (Test Example 8b) Oral Bioavailability (BA) in Mouse
To Female Swiss mouse (23±3 g) test compound was administered as 0.5 mg/mL intravenous and 1 mg/mL oral solution in milli-Q water (pH 5.0). The final dose was 4.25 mg/kg body weight (intravenous) and 8.5 mg/kg body weight (oral route). Plasma samples analyzed for test compound using LC-MS/MS method. Estimation of pharmacokinetic parameters was done by using moment analysis. WinNonlin software 6.1 (Pharsight) was utilized for the estimation of PK parameters and oral bioavailability.

Compound `Cl.NC[C@H]1OB(O)c2ccc3c(c21)OCO3` (single isomer, unassigned) [Compound 6] has an MIC [1] of 1 µg/mL, an MIC [2] of 1 µg/mL and an MIC [3] of 2 µg/mL. For the same compound, the “log reduction in cfu from 24 hours untreated control” value [4] was 4.04 log, the “log reduction in cfu's from baseline” value [4] was 2.58 log and the bioavailability [5] was 72%. It also gave a bioavailability [6] of 62%.
